Test [1] concerns βT4 cells in neurospheres from P4 rat brain lateral ventricle. The test can be described thus: Ara-C enrichment of βT4 cells in neurosphere cultures. The test is classed as cell-based.
Text: We developed in vitro methods to study and enrich for βT4 cells. We harvested the lateral and medial wall of the lateral ventricles from P4 rat brain. As shown schematically in FIG. 12A, the tissue was dissociated into single cells and placed in neurosphere assay medium. Four days later, we attached the neurospheres to coverslips and stained for βT4. […] In an attempt to purify or enrich for βT4 cells, we treated P4 neurospheres (on coverslips) with cytosine-β-D-arabinofuranoside (Ara-C; for 4 days), which kills actively dividing cells. We dissociated the remaining cells and placed them in neurosphere-forming conditions for 4 days, plated the resulting neurospheres on coverslips and stained them for βIV tubulin.
The “dissociated” cultures had growth properties similar to the plated primary neurospheres.
Primary neurospheres, generated as described above, were dissociated with trypsin and trituration and then plated onto poly-L-lysine-coated (P-1274, Sigma) coverslips (10^5 cells/12 mm coverslip). The coverslips were incubated in neurosphere medium with cytoarabinoside-C (Ara-C, 10 μM, Sigma) for 4 days. Cells were detached from the coverslips by incubation on ice. […] The neurospheres resulting from these procedures are defined as secondary neurospheres and were analyzed by immunocytochemistry as described above or induced to differentiate.
Test [2] has as its system βT4 secondary neurospheres. The test can be described thus: Secondary βT4 neurosphere differentiation into TuJ1-positive neurons and O4-positive oligodendrocytes. It is filed as cell-based, rat. The following applies: PDGF-A alone or in combination with SHH. From the text: With this assay, we will determine whether growth factors or secreted products from activated immune cells affect βT4 neurosphere behavior. Using standard neurosphere medium and N2 only medium as positive and negative controls for cell growth, we tested the effects of two concentrations of sonic hedgehog on oligodendrocyte and neuron production.
If βT4 cells represent a CNS stem cell, growth factors should induce βT4 cell division and regulate the production of mature CNS cells. […]
Undissociated secondary neurospheres were plated onto PLL-coated coverslips and analyzed at either 24 hours or 7 days in vitro with DMEM/F12, Glutamax and Penicillin-Streptomycin (1%, Cellgro) with different supplements as follows: N2 (1%); N2 (1%) plus sonic hedgehog (SHH, 1000 ng/ml, R&D, Minneapolis, Minn.); “neurosphere medium” (N2 (1%), EGF (20 ng/ml), FGF2, 20 ng/ml).
βT4 positive cell percentage in control and Ara-C-treated cultures were quantified by counting 10 randomly selected fields using standard fluorescence microscopy and a 20× objective. βT4 positive primary neurosphere and secondary neurosphere percentage were quantified by counting 10 randomly selected fields using a 10× objective. […]

As for cytosine-β-D-arabinofuranoside [Ara-C], the “enrichment in βT4 cells” value in test [1] (Ara-C 4 days versus culture without Ara-C (0.03%)) is reported as 2700 fold. Also, in test [1] (secondary neurospheres made from Ara-C-resistant primary neurospheres), the “percent of cells in secondary neurospheres βT4-positive” value is listed as > 83%.

“PDGF-A: platelet-derived growth factor added alone or with SHH”: the “effect on differentiation of secondary neurospheres” value in test [2] is “had not effect on differentiation”.

Values taken from patent publication US7803364B2, “Multipotent neural stem cells” (The Cleveland Clinic Foundation, priority 2005, dated 2010).
